Laboratory results published in PMC6842111 (Neuron, 2019).
Read-outs that look alike come from different tables or passages of the source.

What was measured:
[1] = pKa of the bridging nitrogen; format: physicochemical; details: positively-charged bridging nitrogen of the bicyclic ring
human α3β4 receptor = details: ref Tuan et al., 2015; cited from earlier work
α3β4 = details: cited from earlier work
α3β4 receptor [2] = target: T1, α3β4 receptor (Homo sapiens, UniProt P30926+P32297, DEL362-406/DEL379-429/F412N/I408D/INS413[…]/INS432[…]/L414K/P409L/R410E/R415Y/S416L/S433L/V431D); format: binding; details: Fab in large excess (1 μM); Fig. S1C-F
α3β4 receptor [3] = target: T1, α3β4 receptor; assay: Functional response to nicotine in presence of Fab; format: cell-based; details: Fig. S1B
[4] = ref Eaton et al., 2003, Xiao et al., 1998

Q: What does the source list for `CN1C2CCCC1CC(Nc1ccccc1Br)C2` (centres unmarked) [AT-1001]?
A: pKa [1]: 9.35; affinity to the human α3β4 receptor (human α3β4 receptor): sub-nanomolar; selectivity for α3β4 over α4β2 (human α3β4 receptor): ~ 200 fold

Q: Which “affinity lower for α3β4 than for α4β2” value (α3β4; [4]) does the source give for `CC(=O)OCC[N+](C)(C)C` [acetylcholine] here?
A: 10-100 fold

Q: With `CN1CCC[C@H]1c1cccnc1` [nicotine] as the molecule, how does the “affinity lower for α3β4 than for α4β2” value (α3β4) read?
A: 10-100 fold

Q: With `Clc1ccc(C2CC3CCC2N3)cn1` (centres unmarked) [epibatidine] as the molecule, how does the “affinity lower for α3β4 than for α4β2” value (α3β4; [4]) read?
A: 10-100 fold

B1: Fab: Fab fragment of the 4G9 mouse monoclonal antibody (IgG2b, κ) raised against α3β4 (antibody, V domains shown)
VH: QVQLQQSGPELVRPGVSVKISCKGSGYTFTDYALYWVRQSHAKSLEWIGVINPYSGNTNYNQKFKGKATMTVDKSSSTAYMELARLTSDDSAIYYCASGYDGYPYTMDYWGPGASVTVSS
VL: QIVLTQSPAIMSASPGEKVTMTCSASSSMTYMHWYQQKSGTSPKRWIYDTSQLASGVPARFRGSGSGTSFSLTISSMEAEDAATYYCQQWSSNPLTFGGGTKLELK
Q: With B1 as the molecule, how does the “effect on ligand binding” value (α3β4 receptor [2]) read?
A: small positive effect

Q: And the “effect on the functional response to nicotine” value (α3β4 receptor [3])?
A: little to no effect
